Several values for one entry are separate records, joined by “and”; a condition that tells them apart may be missing. Equal values may be shown once. Entries after “also recorded” stand apart in the source; their conditions may differ.
Key:
[1] = cited from earlier work
tumors = details: preclinical and clinical tumors; cited from earlier work
[2] = Phase I pharmacokinetics of CPT-11, SN-38 and SN-38G in plasma/urine after 90 min iv infusion; details: for "Biliary ratio" (median): AUC SN-38/SN-38G
Procedure: All patients met the standard laboratory criteria including criteria for adequate organ function. Informed, written consent was obtained from all patients prior to their first dose of CPT-11. The drug was given in 500 cc normal saline by intravenous infusion over 90 minutes on a weekly basis for four doses in a sixweek cycle. […] A second cycle was given with the same dose and schedule used during cycle 1. […] Patients who experienced dose limiting neutropenia were eligible to receive G-CSF at 5 μg/kg/day according to the criteria defined below.
To determine drug and metabolite levels, heparinized blood samples obtained on the first cycle of therapy, were centrifuged and the plasma was stored at -70° C. until analysis. CPT (camptothecin, 1 μg/ml, obtained from the National Cancer Institute, Bethesda, Md.) was used as an internal standard. One hundred μl of plasma was extracted with 2 ml of methanol, centrifuged at 2500×g for 10 min and the supernatant was evaporated to dryness. Reconstitution was done with 200 μl of methanol containing 0.1% 10M HCL (pH~2.0). For the estimation of SN-38G, plasma samples were extracted as described above. Prior to reconstitution, the samples were incubated with 1000 U of glucuronidase (Sigma Chemical Co., St. Louis, Mo.) for 2 hours at 37° C.
Analysis was done using a C18 column (μBondapak, 10 μm, 3.9×300 mm; Waters Associates, Milford, Mass.) preceded by a Novapak C18 guard column. […] Detection was monitored by a Hitachi F1050 Fluorescence detector (Hitachi Instruments Inc., Naperville, Ill.) with a λex at 375 nm and λem at 566 nm. […] SN-38G concentrations were determined as the increase in SN-38 concentrations following incubation with glucuronidase.
The plasma concentration-time data of CPT-11, SN-38 and SN-38G were analyzed by non-compartmental analysis using PCNONLIN (SCI, Lexington, Ky.). The area under the plasma concentration-time curve (AUC) from time zero (predose) to the time of the last quantifiable concentration (AUCt) was calculated by the trapezoidal rule. The AUC extrapolated to time infinity (AUCt →.infin.) was estimated by dividing the last quantifiable concentration by the terminal rate constant obtained by the log-linear regression of the terminal elimination phase. The AUC was the summation of AUCt and AUCt→.infin.. Clearance (CL) was estimated as the ratio of the dose and AUC.
The present study employed this principle to obtain an estimate of SN-38 excreted in the bile. Since glucuronidation is the major pathway of elimination of SN-38, the fraction of SN-38 not conjugated would be primarily excreted in the bile. The net biliary concentration of SN-38 would then be a resultant of its formation and elimination. This concentration was expressed as the "biliary ratio" which was the ratio of AUC of SN-38 to SN-38G. To control for individual variability in the amount of available drug, the ratio was multiplied by the AUC of CPT-11 to obtain a "biliary index" of SN-38.
The nonparametric Mann-Whitney test was employed to test for differences in pharmacokinetic outcomes between two patient groups, defined by the worst severity of diarrhea experienced in the first two cycles of CPT-11 treatment. Statistical tests were performed in the Number Cruncher Statistical System (Dr. Jerry Hintz, Kaysville, Utah). A two-sided significance level of less than or equal to 0.05 was considered statistically significant.

[3] = human, in vivo; cited from earlier work
p-glycoprotein = target: T1, p-glycoprotein (Homo sapiens, UniProt P08183); test: in vitro; format: binding
T1 construct: membrane vesicles from the multidrug resistant breast tumor cell line; endogenous in cells; host or cells: MCF-7/Adr (multidrug resistant human breast cancer cell line), membrane vesicles
T1 sequence (P08183 whole entry): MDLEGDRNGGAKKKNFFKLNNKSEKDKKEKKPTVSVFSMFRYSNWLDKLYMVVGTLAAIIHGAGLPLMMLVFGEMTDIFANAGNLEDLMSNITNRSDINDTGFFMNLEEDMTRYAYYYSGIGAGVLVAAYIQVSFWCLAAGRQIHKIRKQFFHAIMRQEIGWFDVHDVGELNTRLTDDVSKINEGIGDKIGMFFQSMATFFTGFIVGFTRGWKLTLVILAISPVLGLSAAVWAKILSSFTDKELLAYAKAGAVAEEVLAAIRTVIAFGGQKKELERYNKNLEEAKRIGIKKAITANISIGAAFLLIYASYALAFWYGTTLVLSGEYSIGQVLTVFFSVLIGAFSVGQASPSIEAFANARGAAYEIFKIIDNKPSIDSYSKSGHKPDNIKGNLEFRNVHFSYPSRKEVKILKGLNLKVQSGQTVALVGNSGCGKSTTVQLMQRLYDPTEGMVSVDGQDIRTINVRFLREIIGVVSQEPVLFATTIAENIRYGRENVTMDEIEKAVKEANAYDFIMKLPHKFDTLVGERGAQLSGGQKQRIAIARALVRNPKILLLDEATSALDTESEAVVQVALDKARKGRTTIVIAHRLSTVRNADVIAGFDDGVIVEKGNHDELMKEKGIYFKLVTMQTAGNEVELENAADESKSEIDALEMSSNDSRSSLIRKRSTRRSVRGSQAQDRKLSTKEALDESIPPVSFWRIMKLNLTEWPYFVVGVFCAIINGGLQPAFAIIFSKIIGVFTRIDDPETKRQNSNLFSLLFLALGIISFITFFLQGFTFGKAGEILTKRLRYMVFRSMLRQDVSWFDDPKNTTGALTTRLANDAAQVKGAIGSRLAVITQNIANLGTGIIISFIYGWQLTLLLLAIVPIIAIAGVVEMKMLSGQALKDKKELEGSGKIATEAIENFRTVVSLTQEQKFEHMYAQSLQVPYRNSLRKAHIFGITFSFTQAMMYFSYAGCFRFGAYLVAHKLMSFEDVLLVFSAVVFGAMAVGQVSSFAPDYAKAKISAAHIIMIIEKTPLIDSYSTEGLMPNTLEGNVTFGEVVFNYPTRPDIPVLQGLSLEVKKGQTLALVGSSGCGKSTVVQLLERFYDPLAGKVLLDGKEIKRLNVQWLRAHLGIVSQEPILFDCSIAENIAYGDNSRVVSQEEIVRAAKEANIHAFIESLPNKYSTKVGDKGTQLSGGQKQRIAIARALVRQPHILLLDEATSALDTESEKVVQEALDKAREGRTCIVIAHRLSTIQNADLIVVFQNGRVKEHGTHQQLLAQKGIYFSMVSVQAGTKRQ
Excerpt: FIG. 5. […]. Membrane vesicles from the multidrug resistant human breast cancer tumor cell line […] were used. […].

[4] = Phase I toxicity evaluation (CALGB expanded toxicity criteria); format: in vivo, human
Procedure: […]. The detailed examples presented in the present application reflect treatment on 21 patients.
Significant gastrointestinal toxicity was first manifested at the second dose level (120 mg/m2). […] […]. […] Two of these cases were found at exploratory laparotomy to be due to progression of disease and one resolved after conservative therapy, but was likely due to progression of disease. […] In a few patients, however, high doses of ondansetron were required to achieve relief.
Toxicity assessment was done according to the CALGB expanded toxicity criteria. Patients who experienced>grade 2 diarrhea at any time while on study were begun on loperamide 4 mg p.o. followed by 2 mg p.o. after every stool up to a total dose of 16 mg/day. If loperamide was unsuccessful in controlling diarrhea, patients were begun on octreotide acetate 100-600 μg for 2-3 doses per day. Stool collections were also obtained to test for any co-existing infection. […]

SMILES: CCc1c2c(nc3ccc(OC(=O)N4CCC(N5CCCCC5)CC4)cc13)-c1cc3c(c(=O)n1C2)COC(=O)[C@]3(O)CC [CPT-11, 7-ethyl-10-[4-(1-piperidino)-1-piperidino)carbonyloxycamptot hecin]
- route of excretion ([1]; animal studies): equally excreted into bile and urine
- dose eliminated in the urine ([1]; rats, % of CPT-11 dose): about 20%
- antitumor activity (tumors): significant activity in a broad spectrum of in vitro and in vivo tumor models; also recorded: antitumor activity in phase II trials
- "biliary index" (median) ([2]; 145 mg/m2, Grade 0-2 diarrhea, p=0.03): 2275 and 2276
- "biliary index" (median) ([2]; 145 mg/m2, Grade 3-4 diarrhea, p=0.03): 4747
- "Biliary ratio" (median) ([2]; 145 mg/m^2, Grade 0-2 diarrhea, n = 5): 0.27
- "biliary index" (median) ([2]; 145 mg/m^2, Grade 0-2 diarrhea, n = 5, p 0.03): 2276 ng·h/mL
- "Biliary ratio" (median) ([2]; 145 mg/m^2, Grade 3-4 diarrhea, n = 5): 0.53
- "biliary index" (median) ([2]; 145 mg/m^2, Grade 3-4 diarrhea, n = 5, p 0.03): 4747 ng·h/mL
- "biliary index" ([2]; 4 of 5 patients with grade 3-4 diarrhea, 145 mg/m^2): above 4000
- effect of pretreatment with G-CSF on pharmacokinetics ([2]; CPT-11 and its metabolites): no effect
- "biliary index" (median) ([2]; all dose levels, grade 0-2 diarrhea, n=12, p=0.0004): 2228
- "biliary index" (median) ([2]; all dose levels, grade 3-4 diarrhea, n=9, p=0.0004): 5499
- increase of AUC from 100 to 175 mg/m^2 ([2]; in vivo): 2.6 fold
- interpatient variability of AUC (percent coefficient of variation) ([2]; in vivo): 17-57%
- patients with grade 3-4 diarrhea having index estimates above 4000 ([2]; in vivo): about 90%
- "biliary index" ([2]; one patient, grade 3-4 diarrhea, c diff+): 3028
- DLT in Phase I studies in Japan and Europe/US [3]: either myelosuppression or diarrhea
- substrate of p-glycoprotein (p-glycoprotein): substrates of p-glycoprotein
- inhibition at 10 µM (p-glycoprotein; human, mcf-7/adr membrane vesicles): 80%
- myelosuppression ([4]; 100 mg/m2): not a significant toxicity
- diarrhea ([4]; 100 mg/m^2): No diarrhea was observed
- myelosuppression ([4]; 120 mg/m2): dose-limiting in one patient
- patients developing grade 3-4 diarrhea ([4]; 120 mg/m^2): 34%
- myelosuppression ([4]; 145 mg/m2, ameliorated by prophylactic G-CSF): dose-limiting in two patients
- neutropenia >grade 1 ([4]; 145 mg/m2 with G-CSF): No cases
- patients developing grade 3-4 diarrhea ([4]; 145 mg/m^2): 50%
- neutropenic fevers ([4]; 175 mg/m2, first two patients, despite prophylactic G-CSF): hospitalized with neutropenic fevers
- patients developing grade 3-4 diarrhea ([4]; 175 mg/m^2): 100%
- major toxicities ([4]; 100-175 mg/m2): myelosuppression, diarrhea, and abdominal cramping pain
- abdominal cramping ([4]; Patients 4 (120 mg/m2), 21 and 15 (145 mg/m2)): grade 3 abdominal cramping
- neutropenic fevers ([4]; Patients 13 and 16, 145 mg/m2, cycle 1): hospitalized with neutropenic fevers
- small bowel obstructions ([4]; likely due to progression of disease): Three patients developed small bowel obstructions
- nausea and vomiting ([4]; majority of patients, doses >120 mg/m2): grade 1-2 nausea and vomiting
- abdominal cramps ([4]; other patients): Four other patients had mild (grade 1) abdominal cramps
